Results taken from patent publication US6143769A, “Phenylacetic acid benzylamides” (Karl Thomae GmbH, priority 1983, dated 2000).
Like-named read-outs stand apart in the source and are kept apart here.

How the values were obtained:
[1] = tested on: glucose; assay: Study 4: whole blood glucose, AG-EE 623 ZW spray-dried tablets; type: in vivo, human
Excerpt: Blood samples were taken at different times.

[2] = tested on: rats; assay: Acute toxicity of (S)-enantiomer, single oral dose 1000 mg/kg, rats; type: in vivo; details: 1000 mg/kg p.o.
[3] = for Maximum concentration: 2 mg tablet p.o.
Method: (§1) More specifically, the studies which follow were carried out on healthy male volunteers in whom the levels of glucose and active substance in the course of time were determined:
(§2) 0.25 hours after oral administration a standard breakfast (B) was eaten, 5.5 hours after administration a standard lunch (L) was eaten and 10 hours after administration a standard evening meal (D) was eaten. Blood samples were taken at different times. The glucose concentrations were determined from whole blood according to study 1. The AG-EE 623 ZW concentrations in the plasma were determined by a stereospecific competitive enzyme immunoassay (ELISA) with a detection limit of 0.5 ng/ml.
(§3) The AG-EE 623 ZW-specific ELISA used is based on polyclonal rabbit antibodies directed against AG-EE 623 ZW covalently bound to human serum albumin. The cross reaction with AG-EE 624 ZW is less than 1:100. Microtitre immunoplates were coated with these antibodies and, after washing and blocking of the plates, incubated with standard or unknown plasma samples at 4° C. for one hour with shaking. Then AG-EE 623 ZW coupled to horse-radish peroxidase was added and incubated for a further 4 hours under the same conditions. 1,2-phenylenediamine was used as substrate for photometrically quantifying the bound enzyme-coupled molecules.

[4] = after administration of racemate
Method: as §1
(§4) In the interests of more precise clarification, study 5 was carried out (randomised, open, crossover). […] 2 hours after administration a standard breakfast (B) was eaten, 5 hours after administration a standard lunch (L) was eaten and 10 hours after administration a standard dinner (D) was eaten. Blood samples were taken at different times. The glucose concentrations were measured in the plasma as in study 1. […] The plasma concentrations of AG-EE 624 ZW were calculated as the difference between the two concentrations found:

[5] = clinical; details: human, plasma, po
Method: as §1, §2, §3

[6] = clinical; details: human, plasma, 1 mg
Method: as §1, §4

CCOc1cc(CC(=O)N[C@@H](CC(C)C)c2ccccc2N2CCCCC2)ccc1C(=O)O [AG-EE 623 ZW, (S)(+)-2-ethoxy-4-[N-[1-(2-piperidino-phenyl)-3-methyl-1-butyl]aminocarbonylmethyl]-benzoic acid]
Start of blood sugar lowering ([1]; 2 mg tablet): 0.75 h
Glucose (mean) ([1]; 2 mg tablet, 0 h): 4.67 mmol/L
Glucose (mean) ([1]; 2 mg, 0.25 h (breakfast)): 5.14 mmol/L
Glucose (mean) ([1]; 2 mg, 0.50 h): 4.38 mmol/L
Glucose (mean) ([1]; 2 mg, 0.75 h): 4.54 mmol/L
Glucose (mean) ([1]; 2 mg, 1.00 h): 4.27 mmol/L
Glucose (mean) ([1]; 2 mg, 1.50 h): 2.65 mmol/L
Glucose (mean) ([1]; 2 mg, 2.09 h (so in the source)): 2.74 mmol/L
Glucose (mean) ([1]; 2 mg, 3.00 h): 3.07 mmol/L
Glucose (mean) ([1]; 2 mg, 4.00 h): 3.64 mmol/L
Glucose (mean) ([1]; 2 mg, 5.00 h): 3.88 mmol/L
Glucose (mean) ([1]; 2 mg, 6.00 h): 6.47 mmol/L
Glucose (mean) ([1]; 2 mg, 8.00 h): 4.61 mmol/L
Glucose (mean) ([1]; 2 mg, 10.00 h (dinner)): 4.45 mmol/L
Glucose (mean) ([1]; 2 mg, 24.00 h): 4.77 mmol/L
Toxicity [2]: virtually non-toxic
Deaths ([2]; 5 male and 5 female rats, 14 days): no animals died
Concentration (mean) ([3]; 0.5 mg tablet, 0 h): 0.0 ng/mL
Concentration (mean) ([3]; 0.5 mg, 4.00 h): 0.0 ng/mL
Concentration (mean) ([3]; 0.5 mg, 5.00 h): 0.0 ng/mL
Concentration (mean) ([3]; 0.5 mg, 6.00 h): 0.0 ng/mL
Concentration (mean) ([3]; 0.5 mg, 8.00 h): 0.0 ng/mL
Concentration (mean) ([3]; 0.5 mg, 10.00 h): 0.0 ng/mL
Concentration (mean) ([3]; 0.5 mg, 24.00 h): 0.0 ng/mL
Time at which plasma level is below detection limit ([3]; 1 mg tablet): 3.0 h
Concentration (mean) ([3]; 1 mg tablet, 0 h): 0.0 ng/mL
Concentration (mean) ([3]; 1 mg, 8.00 h): 0.0 ng/mL
Concentration (mean) ([3]; 1 mg, 10.00 h): 0.0 ng/mL
Concentration (mean) ([3]; 1 mg, 24.00 h): 0.0 ng/mL
Time at which plasma level is below detection limit ([3]; 2 mg tablet): 4.0 h
Maximum concentration [3]: 50.4 ± 26.3 ng/mL
Maximum concentration ([3]; listed as 623): 50 ± 26 ng/mL
Concentration (mean) ([3]; 2 mg tablet, 0 h): 0.0 ng/mL
Concentration (mean) ([3]; 2 mg, 8.00 h): 0.0 ng/mL
Concentration (mean) ([3]; 2 mg, 10.00 h): 0.0 ng/mL
Concentration (mean) ([3]; 2 mg, 24.00 h): 0.0 ng/mL
Fall of plasma levels (comparison) ([3]; versus AG-EE 388 ZW, identical dose): fall more rapidly towards zero than the AG-EE 388 ZW levels
Elimination (comparison) [4]: eliminated more rapidly than the ineffective enantiomer, AG-EE 624 ZW
Tmax [5]: 30 min
AUC(0-inf) ([5]; 0.5 mg): 14.3 ± 8.6 ng·h/mL
Cmax ([5]; 0.5 mg): 15 ± 8 ng/mL
MRT ([5]; 0.5 mg): 54 ± 12 min
Tmax ([5]; 0.5 mg): 36 ± 6 min
concentration at 0.25 h ([5]; 0.5 mg): 8.4 ng/mL
concentration at 0.5 h ([5]; 0.5 mg): 4.7 ng/mL
concentration at 0.75 h ([5]; 0.5 mg): 1.6 ng/mL
concentration at 1 h ([5]; 0.5 mg): 7 ng/mL
concentration at 1.5 h ([5]; 0.5 mg): 2.6 ng/mL
concentration at 2.09 h ([5]; 0.5 mg): 1.2 ng/mL
concentration at 3 h ([5]; 0.5 mg): 0.3 ng/mL
half-life ([5]; 0.5 mg): 30 ± 12 min
concentration at 0.25 h ([5]; 1 mg): 14.5 ng/mL
concentration at 0.5 h ([5]; 1 mg): 27.9 ng/mL
concentration at 0.75 h ([5]; 1 mg): 24.2 ng/mL
concentration at 1 h ([5]; 1 mg): 15.3 ng/mL
concentration at 1.5 h ([5]; 1 mg): 7.8 ng/mL
concentration at 2.09 h ([5]; 1 mg): 4.7 ng/mL
concentration at 3 h ([5]; 1 mg): 1.4 ng/mL
concentration at 0.25 h ([5]; 2 mg): 24.1 ng/mL
concentration at 0.5 h ([5]; 2 mg): 50.4 ng/mL
concentration at 0.75 h ([5]; 2 mg): 41.1 ng/mL
concentration at 1 h ([5]; 2 mg): 29.9 ng/mL
concentration at 1.5 h ([5]; 2 mg): 13.5 ng/mL
concentration at 2.09 h ([5]; 2 mg): 8.8 ng/mL
concentration at 3 h ([5]; 2 mg): 4.3 ng/mL
concentration at 4 h ([5]; 2 mg): 1.5 ng/mL
concentration at 5 h ([5]; 2 mg): 0.4 ng/mL
concentration at 6 h ([5]; 2 mg): 0.2 ng/mL
MRT ([6]; iv): 54 ± 36 min
clearance ([6]; iv): 443 ± 140 mL/min
bioavailability ([6]; po): 76 ± 20%
